In experiment [1] the target is T1, Melanocortin receptor 4 (Homo sapiens, UniProt P32245). Put plainly: Binding affinity towards human melanocortin 4 receptor expressed in HEK 293 cells using [125I]NDP-MSH. In kind it is cell-based, HEK293.
The test system of experiment [2] is HEK293. The experiment is described as follows: Agonist activity in stimulation of cAMP accumulation in HEK 293 cells. Particulars: Homo sapiens.
For a further experiment, the target named is Melanocortin receptor 3 (Homo sapiens, UniProt P41968). The experiment is described as follows: Binding affinity for human melanocortin 3 receptor.
Melanocortin receptor 3, sequence (P41968 whole entry): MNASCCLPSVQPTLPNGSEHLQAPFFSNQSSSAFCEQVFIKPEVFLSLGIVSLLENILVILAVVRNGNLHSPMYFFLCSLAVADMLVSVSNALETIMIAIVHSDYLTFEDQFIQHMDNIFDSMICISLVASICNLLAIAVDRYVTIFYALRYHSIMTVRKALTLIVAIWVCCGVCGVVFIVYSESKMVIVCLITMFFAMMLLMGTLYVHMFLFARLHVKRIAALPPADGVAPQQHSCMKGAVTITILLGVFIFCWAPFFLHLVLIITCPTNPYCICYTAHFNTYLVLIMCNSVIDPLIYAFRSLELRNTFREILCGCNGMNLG
Experiment [3] concerns HEK293. Put plainly: Inhibition of alpha-MSH-stimulated cAMP production at 10 uM in HEK cell line. The experiment is classed as functional. Particulars: Homo sapiens.
A further experiment addresses Melanocortin receptor 5 (Homo sapiens, UniProt P33032). The experiment is described as follows: Binding affinity for human melanocortin 5 receptor.
In experiment [4] the target is T1, Melanocortin receptor 4. Put plainly: Inhibitory concentration against Melanocortin 4 receptor.

T1 sequence (P32245 whole entry): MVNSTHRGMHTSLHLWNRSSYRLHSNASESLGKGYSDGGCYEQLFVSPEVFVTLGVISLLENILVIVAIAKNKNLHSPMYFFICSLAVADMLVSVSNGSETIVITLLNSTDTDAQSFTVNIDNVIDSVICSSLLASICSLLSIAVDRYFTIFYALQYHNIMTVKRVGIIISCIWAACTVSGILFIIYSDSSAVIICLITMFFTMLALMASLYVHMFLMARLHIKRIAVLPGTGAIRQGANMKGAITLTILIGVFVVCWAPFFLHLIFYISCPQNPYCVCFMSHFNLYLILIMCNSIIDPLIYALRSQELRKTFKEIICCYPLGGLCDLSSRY
Melanocortin receptor 5, sequence (P33032 whole entry): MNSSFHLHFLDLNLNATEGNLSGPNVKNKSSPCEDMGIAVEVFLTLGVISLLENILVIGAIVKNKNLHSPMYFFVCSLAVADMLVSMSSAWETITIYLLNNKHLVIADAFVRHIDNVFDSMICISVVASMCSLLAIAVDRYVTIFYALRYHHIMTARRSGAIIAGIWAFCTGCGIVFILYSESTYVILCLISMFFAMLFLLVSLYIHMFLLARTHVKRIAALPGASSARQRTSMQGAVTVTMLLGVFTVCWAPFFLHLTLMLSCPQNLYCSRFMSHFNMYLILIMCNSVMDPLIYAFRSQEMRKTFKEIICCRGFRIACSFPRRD

In turn, `CC(NC1CCCNC1)c1ccccc1N1CCN(C(=O)[C@@H](Cc2ccc(Cl)cc2)NC(=O)C2(N)CCc3ccccc32)CC1` (some centres undefined) yielded a Ki on Melanocortin receptor 4 [1] of 47 nM.

Consider `O=C(N[C@H](Cc1ccc(Cl)cc1)C(=O)N1CCN(c2ccccc2CNCCN2CCOCC2)CC1)[C@H]1Cc2ccccc2CN1`, for which the Ki on Melanocortin receptor 4 [1] worked out at 120 nM. In the experiment on HEK293 [2], the EC50 turned out to be 570 nM.

`CC(C)COCCCNC(C)c1ccccc1N1CCN(C(=O)[C@@H](Cc2ccc(Cl)cc2)NC(=O)[C@H]2Cc3ccccc3CN2)CC1` (some centres undefined): the Ki on Melanocortin receptor 4 [1] was found to be 41 nM. Moreover, the EC50 in the experiment on HEK293 [2] worked out at 560 nM.

`O=C(N[C@H](Cc1ccc(Cl)cc1)C(=O)N1CCN(c2ccccc2CNCCCn2ccnc2)CC1)[C@H]1Cc2ccccc2CN1` had a Ki at Melanocortin receptor 4 [1] of 370 nM. The compound further had an EC50 in the experiment with HEK293 [2] of 640 nM.

For `CC(NC1CCCNC1)c1ccccc1N1CCN(C(=O)[C@@H](Cc2ccc(Cl)cc2)NC(=O)C(N)Cc2ccccn2)CC1` (some centres undefined), the Ki at Melanocortin receptor 4 [1] came out at 56 nM. In the experiment with HEK293 [2], the EC50 was 220 nM.

With `CC(NC1CCCNC1)c1ccccc1N1CCN(C(=O)[C@@H](Cc2ccc(Cl)cc2)NC(=O)CC2NCCc3ccccc32)CC1` (some centres undefined), the Ki came out at 6.3 nM at Melanocortin receptor 4 [1] and 1900 nM on Melanocortin receptor 3. Moreover, in the experiment on HEK293 [2], the EC50 was found to be 31 nM.

Compound `CC(NC1CCCNC1)c1ccccc1N1CCN(C(=O)[C@@H](Cc2ccc(Cl)cc2)NC(=O)C(N)c2ccccc2)CC1` (some centres undefined) displayed a Ki on Melanocortin receptor 4 [1] of 34 nM.

`CCOC(=O)CN(C)Cc1ccccc1N1CCN(C(=O)[C@@H](Cc2ccc(Cl)cc2)NC(=O)[C@H]2Cc3ccccc3CN2)CC1` returned a Ki on Melanocortin receptor 4 [1] of 140 nM. The compound further registered an EC50 in the experiment on HEK293 [2] of 210 nM.

As for `CC(NC1CCCNC1)c1ccccc1N1CCN(C(=O)[C@@H](Cc2ccc(Cl)cc2)NC(=O)C(N)C2CCc3ccccc32)CC1` (some centres undefined), the Ki at Melanocortin receptor 4 [1] came to 120 nM. In addition, in the experiment on HEK293 [2], the midpoint of the response, the EC50, lay at 630 nM.

`O=C(N[C@H](Cc1ccc(Cl)cc1)C(=O)N1CCN(c2ccccc2CNc2ccncc2)CC1)[C@H]1Cc2ccccc2CN1` showed a Ki on Melanocortin receptor 4 [1] of 36 nM. In addition, the EC50 in the experiment on HEK293 [2] is 350 nM.

With `CC(NC1CCCNC1)c1ccccc1N1CCN(C(=O)[C@@H](Cc2ccc(Cl)cc2)NC(=O)c2cnc3ccccc3c2)CC1` (some centres undefined), the Ki stood at 4.8 nM at Melanocortin receptor 4 [1], 630 nM on Melanocortin receptor 3 and 600 nM at Melanocortin receptor 5. Further, the inhibition at 10 µM in the experiment with HEK293 [3] worked out at 38%. This compound also came in with an IC50 against Melanocortin receptor 4 [4] of 300 nM.

In turn, `CC(NC1CCCNC1)c1ccccc1N1CCN(C(=O)[C@@H](Cc2ccc(Cl)cc2)NC(=O)Cc2ccccc2)CC1` (some centres undefined) registered an inhibition constant Ki on Melanocortin receptor 4 [1] of 30 nM.

At Melanocortin receptor 4 [1], `N[C@H]1CCCC[C@@H]1NCc1ccccc1N1CCN(C(=O)[C@@H](Cc2ccc(Cl)cc2)NC(=O)[C@H]2Cc3ccccc3CN2)CC1` displayed a Ki of 89 nM. This compound registered an EC50 with HEK293 [2] of 390 nM.

Turning to `O=C(N[C@H](Cc1ccc(Cl)cc1)C(=O)N1CCN(c2ccccc2CN2CCOCC2)CC1)[C@H]1Cc2ccccc2CN1`, the Ki at Melanocortin receptor 4 [1] turned out to be 53 nM. The same compound displayed an EC50 in the experiment on HEK293 [2] of 360 nM.

`CN1CCN(Cc2ccccc2N2CCN(C(=O)[C@@H](Cc3ccc(Cl)cc3)NC(=O)[C@H]3Cc4ccccc4CN3)CC2)CC1` yielded a Ki at Melanocortin receptor 4 [1] of 240 nM. This compound also yielded an EC50 in the experiment with HEK293 [2] of 720 nM.

Consider `O=C(N[C@H](Cc1ccc(Cl)cc1)C(=O)N1CCN(c2ccccc2CN2CCCNCC2)CC1)[C@H]1Cc2ccccc2CN1`, for which affinity on Melanocortin receptor 4 [1] was put at a Ki of 78 nM. The same compound came in with an EC50 with HEK293 [2] of 210 nM.

`CN(C)CCC(=O)N[C@H](Cc1ccc(Cl)cc1)C(=O)N1CCC(Cn2cncn2)(C2CCCCC2)CC1` displayed an EC50 with HEK293 [2] of 40 nM.

Compound `O=C(N[C@H](Cc1ccc(Cl)cc1)C(=O)N1CCN(c2ccccc2CNCCCN2CCCC2=O)CC1)[C@H]1Cc2ccccc2CN1` registered an inhibition constant Ki at Melanocortin receptor 4 [1] of 270 nM. This compound also returned an EC50 with HEK293 [2] of 360 nM.

In turn, `CC(NC1CCCNC1)c1ccccc1N1CCN(C(=O)[C@@H](Cc2ccc(Cl)cc2)NC(=O)[C@H]2Cc3ccccc3CN2)CC1` (some centres undefined) registered an EC50 in the experiment on HEK293 [2] of 4.7 nM.

As to `CC(NC1CCCNC1)c1ccccc1N1CCN(C(=O)[C@@H](Cc2ccc(Cl)cc2)NC(=O)CCc2ccccc2)CC1` (some centres undefined), on Melanocortin receptor 4 [1], the affinity, expressed as Ki, was 33 nM.

As to `CC(NC1CCCNC1)c1ccccc1N1CCN(C(=O)[C@@H](Cc2ccc(Cl)cc2)NC(=O)C(N)Cc2cccnc2)CC1` (some centres undefined), at Melanocortin receptor 4 [1], the Ki is 49 nM.

The compound `CC(NCCN1CCOCC1)c1ccccc1N1CCN(C(=O)[C@@H](Cc2ccc(Cl)cc2)NC(=O)[C@H]2Cc3ccccc3CN2)CC1` (some centres undefined) registered a Ki at Melanocortin receptor 4 [1] of 87 nM. Moreover, the EC50 in the experiment with HEK293 [2] turned out to be 230 nM.

On Melanocortin receptor 4 [1], `CC(NC1CCCNC1)c1ccccc1N1CCN(C(=O)[C@@H](Cc2ccc(Cl)cc2)NC(=O)C2(N)Cc3ccccc3C2)CC1` (some centres undefined) showed a Ki of 24 nM. Moreover, the EC50 in the experiment on HEK293 [2] stood at 440 nM.

Take `O=C(N[C@H](Cc1ccc(Cl)cc1)C(=O)N1CCN(c2ccccc2CNCCc2cccs2)CC1)[C@H]1Cc2ccccc2CN1`: in the experiment on HEK293 [2], the EC50 was found to be 360 nM. That is a sub-micromolar value.

The compound `CC(C)COCCCNCc1ccccc1N1CCN(C(=O)[C@@H](Cc2ccc(Cl)cc2)NC(=O)[C@H]2Cc3ccccc3CN2)CC1` displayed a Ki at Melanocortin receptor 4 [1] of 110 nM. The same compound yielded an EC50 in the experiment with HEK293 [2] of 520 nM.

`CN(C)CCN(Cc1ccccc1)Cc1ccccc1N1CCN(C(=O)[C@@H](Cc2ccc(Cl)cc2)NC(=O)[C@H]2Cc3ccccc3CN2)CC1`: the affinity on Melanocortin receptor 4 [1] corresponds to a Ki of 22 nM. This compound also yielded an EC50 in the experiment on HEK293 [2] of 550 nM.

For `CC(NC1CCCNC1)c1ccccc1N1CCN(C(=O)[C@@H](Cc2ccc(Cl)cc2)NC(=O)C2(N)CCc3ccccc3C2)CC1` (some centres undefined), on Melanocortin receptor 4 [1], affinity was put at a Ki of 10 nM. This compound also yielded an EC50 in the experiment with HEK293 [2] of 330 nM.

Regarding `CC(NC1CCCNC1)c1ccccc1N1CCN(C(=O)[C@@H](Cc2ccc(Cl)cc2)NC(=O)C(N)Cc2ccccc2)CC1` (some centres undefined), affinity on Melanocortin receptor 4 [1] was put at a Ki of 52 nM. The response in the experiment with HEK293 [2] was half-maximal at 400 nM (EC50).

`O=C(N[C@H](Cc1ccc(Cl)cc1)C(=O)N1CCN(c2ccccc2CNCCCN2CCCCCC2)CC1)[C@H]1Cc2ccccc2CN1`: the Ki on Melanocortin receptor 4 [1] was 160 nM. Moreover, it took 570 nM to reach a half-maximal effect with HEK293 [2] (EC50).

Values taken from ChEMBL document CHEMBL1144310, “Identification of agonists and antagonists of the human melanocortin-4 receptor from piperazinebenzylamines” (Bioorg Med Chem Lett, 2005).
